Test results: patent US7420056B2, “Substituted bicyclic imidazo-3-ylamine compounds” (Gruenenthal GmbH, priority 2004, dated 2008)

The compounds below were run against mGluR5 receptor (Sus scrofa, UniProt I3LUI7) (assay: Affinity for the mGluR5 receptor: inhibition of 3[H]-MPEP binding in pig brain homogenate). Settings: 10 μM compound, 5 nM 3[H]-MPEP, read-out: mGluR5 receptor inhibition of ^3[H]-MPEP binding [10 μM] in % at a concentration of the example compounds of 10 μM.
Chain of mGluR5 receptor (I3LUI7 19-1212): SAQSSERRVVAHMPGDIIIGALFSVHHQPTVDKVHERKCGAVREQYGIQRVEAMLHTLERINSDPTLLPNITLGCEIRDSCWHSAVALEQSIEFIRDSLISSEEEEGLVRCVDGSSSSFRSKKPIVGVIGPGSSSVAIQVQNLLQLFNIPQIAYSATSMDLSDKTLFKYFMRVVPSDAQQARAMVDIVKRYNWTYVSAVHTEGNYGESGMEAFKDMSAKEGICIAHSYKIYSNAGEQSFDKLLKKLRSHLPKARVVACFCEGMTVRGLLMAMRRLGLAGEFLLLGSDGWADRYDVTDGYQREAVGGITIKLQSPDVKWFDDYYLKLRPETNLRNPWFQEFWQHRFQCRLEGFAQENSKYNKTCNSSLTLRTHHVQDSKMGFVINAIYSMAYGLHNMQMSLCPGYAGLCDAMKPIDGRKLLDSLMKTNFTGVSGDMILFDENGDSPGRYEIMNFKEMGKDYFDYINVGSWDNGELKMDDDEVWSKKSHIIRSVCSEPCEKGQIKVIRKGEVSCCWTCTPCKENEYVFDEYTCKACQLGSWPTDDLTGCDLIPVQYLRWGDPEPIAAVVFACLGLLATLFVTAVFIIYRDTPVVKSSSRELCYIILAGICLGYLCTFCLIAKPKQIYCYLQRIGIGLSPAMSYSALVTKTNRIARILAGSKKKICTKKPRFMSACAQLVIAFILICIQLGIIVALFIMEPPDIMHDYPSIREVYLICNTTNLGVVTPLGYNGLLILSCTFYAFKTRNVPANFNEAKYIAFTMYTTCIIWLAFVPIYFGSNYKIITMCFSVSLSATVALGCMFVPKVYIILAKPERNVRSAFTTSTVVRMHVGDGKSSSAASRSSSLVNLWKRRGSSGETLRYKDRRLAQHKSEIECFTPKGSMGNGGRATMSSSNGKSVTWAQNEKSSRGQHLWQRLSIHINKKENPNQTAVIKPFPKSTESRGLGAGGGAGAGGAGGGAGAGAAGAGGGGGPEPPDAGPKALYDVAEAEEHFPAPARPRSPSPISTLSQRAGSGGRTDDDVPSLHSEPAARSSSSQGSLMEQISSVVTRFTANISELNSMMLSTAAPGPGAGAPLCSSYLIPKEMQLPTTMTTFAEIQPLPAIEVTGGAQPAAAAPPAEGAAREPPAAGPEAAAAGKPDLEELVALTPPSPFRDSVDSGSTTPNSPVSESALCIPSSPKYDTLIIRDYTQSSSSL
Procedure, shortened: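 Pig brain membranes (450 μg protein; hemispheres without medulla, cerebellum and pons) in 30 mM Hepes pH 8.0 were incubated 60 min at room temperature with 5 nM [3H]-MPEP and compound at 10 μM. Bound radioactivity was filtered and counted. Nonspecific binding was defined with 10 μM MPEP.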
In the case of `CCCC(C)(C)Nc1c(-c2ccc(C#Cc3ccccc3)s2)nc2cnccn12` [Example 205, N-(2-methylpentan-2-yl)-2-(5-(phenylethynyl)thiophen-2-yl)imidazo[1,2-a]pyrazin-3-amine], the inhibition at 10 µM is reported as 92%. `C(#Cc1csc(-c2nc3cnccn3c2NCC2CCCCC2)c1)c1ccccc1` [Example 206, N-(cyclohexylmethyl)-2-(4-(phenylethynyl)thiophen-2-yl)imidazo[1,2-a]pyrazin-3-amine] was tested, and the inhibition at 10 µM was 63%. Compound `COc1ccccc1CNc1c(-c2ccc(C#Cc3ccccc3)o2)nc2cnccn12` [Example 207, N-(2-methoxybenzyl)-2-(5-(phenylethynyl)furan-2-yl)imidazo[1,2-a]pyrazin-3-amine] has an inhibition at 10 µM of 35%. Compound `C(#Cc1csc(-c2nc3ccccn3c2NCC2CCCCC2)c1)c1ccccc1` [Example 208, N-(cyclohexylmethyl)-2-(4-(phenylethynyl)thiophen-2-yl)imidazo[1,2-a]pyridin-3-amine] has an inhibition at 10 µM of 57%. Compound `CCCC(C)(C)Nc1c(-c2cc(C#Cc3ccccc3)cs2)nc2ccccn12` [Example 209, N-(2-methylpentan-2-yl)-2-(4-(phenylethynyl)thiophen-2-yl)imidazo[1,2-a]pyridin-3-amine] has an inhibition at 10 µM of 55%. Work on `Cc1cc(Br)c2nc(-c3cccc(C#Cc4cccc(C)n4)c3)c(NC(C)(C)CC(C)(C)C)n2c1` [Example 210, 8-bromo-6-methyl-2-(3-((6-methylpyridin-2-yl)ethynyl)phenyl)-N-(2,4,4-trimethylpentan-2-yl)imidazo[1,2-a]pyridin-3-amine] yielded an inhibition at 10 µM of 68%. With `Cc1cc(Br)c2nc(-c3cccc(C#Cc4ccccn4)c3)c(NC3CCCC3)n2c1` [Example 211, 8-bromo-N-cyclopentyl-6-methyl-2-(3-(pyridin-2-ylethynyl)phenyl)imidazo[1,2-a]pyridin-3-amine] the inhibition at 10 µM was 82%. For `C(#Cc1csc(-c2nc3cnccn3c2NC2CCCC2)c1)c1ccccc1` [Example 212, N-cyclopentyl-2-(4-(phenylethynyl)thiophen-2-yl)imidazo[1,2-a]pyrazin-3-amine], the inhibition at 10 µM was 90%. `CC(Nc1c(-c2cc(C#Cc3ccccc3)cs2)nc2cnccn12)c1ccccc1` (stereo not drawn) [Example 213, N-(1-phenylethyl)-2-(4-(phenylethynyl)thiophen-2-yl)imidazo[1,2-a]pyrazin-3-amine] showed an inhibition at 10 µM of 84%. In the case of `CCCC(C)(C)Nc1c(-c2cc(C#Cc3ccccc3)cs2)nc2cnccn12` [Example 214, N-(2-methylpentan-2-yl)-2-(4-(phenylethynyl)thiophen-2-yl)imidazo[1,2-a]pyrazin-3-amine], the inhibition at 10 µM is reported as 77%. `Cc1cc(Br)c2nc(-c3ccc(C#Cc4ccccn4)o3)c(NC3CCCCC3)n2c1` [Example 215, 8-bromo-N-cyclohexyl-6-methyl-2-(5-(pyridin-2-ylethynyl)furan-2-yl)imidazo[1,2-a]pyridin-3-amine] gave an inhibition at 10 µM of 51%. Work on `C(#Cc1ccc(-c2nc3cnccn3c2NC2CCCC2)o1)c1ccccc1` [Example 216, N-cyclopentyl-2-(5-(phenylethynyl)furan-2-yl)imidazo[1,2-a]pyrazin-3-amine] yielded an inhibition at 10 µM of 49%. For `COc1cccc(CCNc2c(-c3cc(C#Cc4ccccc4)cs3)nc3nc(C)ccn23)c1` [Example 217, N-(3-methoxyphenethyl)-7-methyl-2-(4-(phenylethynyl)thiophen-2-yl)imidazo[1,2-a]pyrimidin-3-amine], the inhibition at 10 µM was 62%. `CC(C)(C)CC(C)(C)Nc1c(-c2ccc(C#Cc3ccccc3)s2)nc2c(OCc3ccccc3)cccn12` [Example 218, 8-(benzyloxy)-2-(5-(phenylethynyl)thiophen-2-yl)-N-(2,4,4-trimethylpentan-2-yl)imidazo[1,2-a]pyridin-3-amine] was tested, and the inhibition at 10 µM was 38%. With `C(#Cc1csc(-c2nc3c(OCc4ccccc4)cccn3c2NC2CCCC2)c1)c1ccccc1` [Example 219, 8-(benzyloxy)-N-cyclopentyl-2-(4-(phenylethynyl)thiophen-2-yl)imidazo[1,2-a]pyridin-3-amine] the inhibition at 10 µM was 33%. With `CCCC(C)(C)Nc1c(-c2cc(C#Cc3ccccc3)cs2)nc2c(OCc3ccccc3)cccn12` [Example 220, 8-(benzyloxy)-N-(2-methylpentan-2-yl)-2-(4-(phenylethynyl)thiophen-2-yl)imidazo[1,2-a]pyridin-3-amine] the inhibition at 10 µM was 31%. `Fc1ccc(CNc2c(-c3ccc(C#Cc4ccccc4)o3)nc3ccc(Cl)cn23)cc1` [Example 221, 6-chloro-N-(4-fluorobenzyl)-2-(5-(phenylethynyl)furan-2-yl)imidazo[1,2-a]pyridin-3-amine] gave an inhibition at 10 µM of 40%. `CCCCNc1c(-c2cc(C#Cc3ccccc3)cs2)nc2ccc(Br)c(C)n12` [Example 222, 6-bromo-N-butyl-5-methyl-2-(4-(phenylethynyl)thiophen-2-yl)imidazo[1,2-a]pyridin-3-amine] gave an inhibition at 10 µM of 33%. `Cc1cccn2c(Nc3ccco3)c(-c3ccc(C#Cc4ccccc4)o3)nc12` [Example 223, N-(furan-2-yl)-8-methyl-2-(5-(phenylethynyl)furan-2-yl)imidazo[1,2-a]pyridin-3-amine] was tested, and the inhibition at 10 µM was 80%. `C(#Cc1ccc(-c2nc3ccccn3c2Nc2ccco2)o1)c1ccccc1` [Example 224, N-(furan-2-yl)-2-(5-(phenylethynyl)furan-2-yl)imidazo[1,2-a]pyridin-3-amine] was tested, and the inhibition at 10 µM was 69%. Work on `CCCc1ccn2c(Nc3ccco3)c(-c3ccc(C#Cc4ccccc4)o3)nc2c1` [Example 225, N-(furan-2-yl)-2-(5-(phenylethynyl)furan-2-yl)-7-propylimidazo[1,2-a]pyridin-3-amine] yielded an inhibition at 10 µM of 43%. `Cc1cc(C)n2c(Nc3cccc(C(F)(F)F)c3)c(-c3cc(C#Cc4ccccc4)cs3)nc2n1` [Example 226, 5,7-dimethyl-2-(4-(phenylethynyl)thiophen-2-yl)-N-(3-(trifluoromethyl)phenyl)imidazo[1,2-a]pyrimidin-3-amine] gave an inhibition at 10 µM of 41%. `Cc1cc(Br)cn2c(NCCc3ccc(Cl)cc3)c(-c3cc(C#Cc4ccccc4)cs3)nc12` [Example 227, 6-bromo-N-(4-chlorophenethyl)-8-methyl-2-(4-(phenylethynyl)thiophen-2-yl)imidazo[1,2-a]pyridin-3-amine] showed an inhibition at 10 µM of 61%. `Clc1ccc(CCNc2c(-c3cc(C#Cc4ccccc4)cs3)nc3cc(-c4ccccc4)ccn23)cc1` [Example 228, N-(4-chlorophenethyl)-7-phenyl-2-(4-(phenylethynyl)thiophen-2-yl)imidazo[1,2-a]pyridin-3-amine] gave an inhibition at 10 µM of 43%. `C(#Cc1csc(-c2nc3cc(-c4ccccc4)ccn3c2NCCc2ccccc2)c1)c1ccccc1` [Example 229, N-phenethyl-7-phenyl-2-(4-(phenylethynyl)thiophen-2-yl)imidazo[1,2-a]pyridin-3-amine] gave an inhibition at 10 µM of 30%. `Cc1cc(C)n2c(NCc3ccc(Cl)cc3)c(-c3cc(C#Cc4ccccc4)cs3)nc2c1` [Example 230, N-(4-chlorobenzyl)-5,7-dimethyl-2-(4-(phenylethynyl)thiophen-2-yl)imidazo[1,2-a]pyridin-3-amine] was tested, and the inhibition at 10 µM was 60%. `Cc1c(Br)ccc2nc(-c3cc(C#Cc4ccccc4)cs3)c(NCc3ccc(Cl)cc3)n12` [Example 231, 6-bromo-N-(4-chlorobenzyl)-5-methyl-2-(4-(phenylethynyl)thiophen-2-yl)imidazo[1,2-a]pyridin-3-amine] was tested, and the inhibition at 10 µM was 62%. For `Cc1cc(Br)c2nc(-c3cc(C#Cc4ccccc4)cs3)c(NCc3ccc(Cl)cc3)n2c1` [Example 232, 8-bromo-N-(4-chlorobenzyl)-6-methyl-2-(4-(phenylethynyl)thiophen-2-yl)imidazo[1,2-a]pyridin-3-amine], the inhibition at 10 µM was 75%. With `CCCc1cccc2nc(-c3cc(C#Cc4ccccc4)cs3)c(NCCc3cccc(OC)c3)n12` [Example 233, N-(3-methoxyphenethyl)-2-(4-(phenylethynyl)thiophen-2-yl)-5-propylimidazo[1,2-a]pyridin-3-amine] the inhibition at 10 µM was 75%. Compound `Cc1cc(Br)cn2c(NCCc3cccs3)c(-c3cc(C#Cc4ccccc4)cs3)nc12` [Example 234, 6-bromo-8-methyl-2-(4-(phenylethynyl)thiophen-2-yl)-N-(2-(thiophen-2-yl)ethyl)imidazo[1,2-a]pyridin-3-amine] has an inhibition at 10 µM of 64%. For `C(#Cc1csc(-c2nc3cc(-c4ccccc4)ccn3c2NCCc2cccs2)c1)c1ccccc1` [Example 235, 7-phenyl-2-(4-(phenylethynyl)thiophen-2-yl)-N-(2-(thiophen-2-yl)ethyl)imidazo[1,2-a]pyridin-3-amine], the inhibition at 10 µM was 32%. Compound `CCCC(C)(C)Nc1c(-c2ccc(C#Cc3ccccc3)s2)nc2c(Br)cc(Br)cn12` [Example 236, 6,8-dibromo-N-(2-methylpentan-2-yl)-2-(5-(phenylethynyl)thiophen-2-yl)imidazo[1,2-a]pyridin-3-amine] has an inhibition at 10 µM of 66%. `Cc1cccc(C)c1Nc1c(-c2cc(C#Cc3ccccc3)cs2)nc2c(C)cc(Br)cn12` [Example 237, 6-bromo-N-(2,6-dimethylphenyl)-8-methyl-2-(4-(phenylethynyl)thiophen-2-yl)imidazo[1,2-a]pyridin-3-amine] showed an inhibition at 10 µM of 36%. In the case of `C(#Cc1ccccn1)c1cccc(-c2nc3cnccn3c2NC2CCCCC2)c1` [Example 238, N-cyclohexyl-2-(3-(pyridin-2-ylethynyl)phenyl)imidazo[1,2-a]pyrazin-3-amine], the inhibition at 10 µM is reported as 92%. Work on `CC(C)(C)CC(C)(C)Nc1c(-c2cccc(C#Cc3ccccn3)c2)nc2cnccn12` [Example 239, 2-(3-(pyridin-2-ylethynyl)phenyl)-N-(2,4,4-trimethylpentan-2-yl)imidazo[1,2-a]pyrazin-3-amine] yielded an inhibition at 10 µM of 60%. For `C(#Cc1ccccn1)c1ccc(-c2nc3cnccn3c2NC2CCCC2)cc1` [Example 240, N-cyclopentyl-2-(4-(pyridin-2-ylethynyl)phenyl)imidazo[1,2-a]pyrazin-3-amine], the inhibition at 10 µM was 95%.
